The record followed here is US20100256014A1, “NOVEL AS160-LIKE PROTEIN, TEST SYSTEMS, METHODS AND USES INVOLVING IT FOR THE IDENTIFICATION OF DIABETES TYPE 2 THERAPEUTICS” (priority 2007, published 2010).

Holding throughout (format): cell-based, rat
Test [1] deals with L6-GLUT4myc cells. The test can be described thus: Uptake of 2-deoxyglucose in L6-GLUT4myc cells with tet-inducible isoform2 of AS160. How it is done: For all examples […]T4myc cells containing isoform2 of AS160 were grown in MEMα (PAN) supplemented with 10% fetal calf serum (FCS) (PAA, tet-free), 2 μg/ml blasticidin (Calbiochem), 0.5 μg/ml puromycin (InvivoGen), 200 μg/ml hygromycin (Invitrogen). Expression of isoform2 of AS160 was induced with 1 μg/ml doxycyclin (Sigma). L6-wildtype (wt) (ATCC: CRL-1458) cells were grown in MEMα+GlutaMax (Gibco) supplemented with 10% FCS (PAA, tet-free) and 1% penicillin/streptomycin (PAA). […]T4myc cells were grown in MEMα+GlutaMax (Gibco) supplemented with 10% FCS (PAA, tet-free), 1% penicillin/streptomycin (PAA) and 2 μg/ml blasticidin (Calbiochem). All cells were grown at 37° C. and 5% CO2. […]T4myc cells containing isoform2 of AS160 were incubated in starve medium (MEMα) 3-4 hours prior to each experiment. To examine glucose uptake of the cells, the respective cells were plated in 96 well Cytostar-T scintillating microplates (Amersham). After 48 hours cells were serum-starved (3-4 hours) and treated with inhibitors as indicated. Uptake of 2-deoxyglucose (0.01 MBq per well, Amersham) was performed as already described (Voss et al., 2005). Nonspecific uptake was determined in the presence of 40 μM cytochalasin B (Calbiochem). This value was subtracted from all other values. Measurement occurred in a Wallac Microbeta counter (Perkin Elmer). Uptake of 2-deoxyglucose is presented as counts per […] (cpm).

A further test concerns AS160 (Thr 642). As to the kind of experiment: In-cell western, phospho-AS160. From the text:
(§1) To study phosphorylation of AKT and AS160 the cells described in Example 2 were used. AS160 is activated by phosphorylation on critical motifs (RXRXXS/T). Known phospho-sites in AS160 are Ser 570, Ser 588, Thr 642 and Thr 751 (Sano et al., 2003). One of the kinases responsible for the activation of AS160 is AKT (Kane et al., 2002). In order to determine the activation status of the isoform2 of AS160 the In-cell western blot technique was used. This method allows the detection of specific proteins directly in 96 well plates without preparation of cell extracts. The specific antibody used in this assay recognizes the phosphorylated Thr 642 phosphorylation site of AS160 and AS160-like protein.
(§2) For this, cells were seeded into 96-well plates (black, Nunc) and grown for 48 hours. Cells were starved for 3-4 hours with MEMα (PAN) containing 2% horse serum (Cambrex). After removal of medium cells were fixed in 3.7% freshly prepared para-formaldehyde (Sigma) for 20 minutes. Cells were permeabilized with PBS+0.1% Triton-X-100. Blocking was performed with Odyssey blocking buffer (Licor) overnight at 4° C. Primary antibodies were incubated for 2 hours at room temperature. The anti-phosphoAKT (Ser 473, Cat No.: 44-621 G) and the anti-phosphoAS160 (Thr 642, Cat No.: 44-1071 G) were from Biosource. After incubation of the primary antibody, cells were washed with PBS+0.1% Tween20. The secondary anti-rabbit-IgG-800-CW antibody (Rockland Cat No.: 611-131-122) was incubated for 1 hour. For detection of DNA TO-PRO3 dye (Molecular Probes, Cat No.: T3605) was used. Fluorescence signals (FIG. 6) are presented as relative units (RU).

Test [2] deals with AKT (Ser 473). The test can be described thus: In-cell western, phospho-AKT.
Description: as §1, §2

For the next test, the system named is GLUT4. The test can be described thus: GLUT4 translocation, laser-scanning fluorescence microplate cytometry (ACUMEN). How it is done:
For this purpose, a technique suitable for screening of compounds was applied. Laser-scanning fluorescence microplate cytometry (ACUMEN technique, LIT) allows the distinct multiparametric analysis of single fluorescent cells in microplates (Bowen and Wylie, 2006). For laser-scanning fluorescence microplate cytometer (Acumen) cells were plated in 96 well plates (Biocat, black). Serum-starved cells were treated as indicated. Briefly, cells were fixed in 3.75% para-formaldehyde (Sigma) for 20 minutes. Subsequently, quenching occurred with […] NH4Cl. Cells were blocked with an adequate blocking solutions for a minimum of 1 hour. Primary antibody (monoclonal anti-myc 9E10, Santa Cruz, sc-40) was incubated for 1 hour. The secondary goat-anti mouse IgG (Alexa Fluor 488, Molecular Probes) was incubated in the presence of Sytox-orange for 1 hour (Bowen and Wylie, 2006).
Based on this highly sensitive procedure it is possible to screen various cell numbers for plasma-membrane based GLUT4-myc-display. Cells were counter-stained with a DNA dye (SytoxOrange) to confirm equal cell numbers.

Test [3] concerns AKT (Ser 473). The test can be described thus: Western blot of AKT phosphorylation (Ser 473). How it is done:
For Western blot analysis proteins were separated on SDS-PAGE gels (4-12% resolving gel, Invitrogen), transferred to PVDF membranes (Roche) and blocked with Roti-Block® (Roth) for 1 hour. Membranes were incubated with primary antibodies overnight. The anti-AS160 antibody was from Upstate. Membranes were washed in TBST and incubated with the appropriate secondary horseradish peroxidase conjugated antibody (Santa Cruz). Immunoreactive bands were visualized with LumiLight (Roche) and detected with Lumi-lmager (Böhringer Ingelheim).
In order to examine tetracycline- and insulin-dependent expression of isoform2 of AS160 protein in L6-GLUT4myc cells containing AS160-like, a western blot analysis was performed. The expression of AS160-like protein was induced with 1 μg/ml doxycyclin for 48 hours as described above. Subsequently, the cells were stimulated with insulin (5 nM to 50 nM; Sanofi-Aventis) for 20 minutes. Cell extracts were prepared, separated via SDS-PAGE and transferred to a PVDF membrane as described above.
The AKT inhibitor Calb. had no effect on the phosphorylation of AKT (Ser 473) (FIG. 11A). […] Phosphorylation of AKT on Ser 473 was detected with a phospho-specific antibody from Biosource (Cat No.: 44-621G).
(In general: Immunoblotting shows a protein as a band on a membrane.)

The test system of the next test is GLUT4-myc. The test can be described thus: Immunofluorescence localization of GLUT4-myc. The conditions noted are these: insulin 100 nM, 20 minutes; L6-GLUT4-myc-tetR-AS160-like. As for the experimental part: Cells were grown on sterile cover slides in 12 well plates. Expression of isoform2 of AS160 was induced with doxycyclin treatment for 48 hours. Serum-starved cells were treated with 100 nM insulin for 20 minutes or were left untreated. After stimulation, cells were fixed in 3.75% para-formaldehyde (Sigma) for 20 minutes. Subsequently, cells were permeabilised with 0.1% TritonX100 in PBS (Icon Biomedicals) or left unpermeabilised (as indicated) for 5 minutes at room temperature. The permeabilisation procedure allows the detection of intracellular localized compartments. Membrane-bound proteins are visualized without permeabilising the cells. Blocking of cells occurred for a minimum of 1 hour in PBS+1% BSA (USB). Primary antibodies (monoclonal anti-myc, Santa Cruz, sc-40 and polyclonal anti-AS160 Upstate) were incubated overnight. The secondary antibodies used are anti-rabbit Alexa488 to detect isoform2 of AS160 and anti-mouse A546 to detect GLUT4-myc. Incubation occurred is for 1 hour (dark). Cells were mounted in 15 μl Dako Cytomation Fluorescent Mounting Medium (DakoCytomation), examined by confocal laser-scanning microscopy with Leica DM IRE2 and analyzed with Leica DM SDK software.

Test [4] has as its system L6-GLUT4myc cells. The test can be described thus: Tetracycline-inducible GFP expression (functionality of the tet-repressor). The conditions noted are these: pCDNA5/TO-GFP; addition of doxycyclin; data not shown. As for the experimental part: L6-GLUT4myc cells containing AS160-like were grown in MEMα (PAN) supplemented with 10% fetal calf serum (FCS) (PAA, tet-free), 2 μg/ml blasticidin (Calbiochem), 0.5 μg/ml puromycin (InvivoGen), 200 μg/ml hygromycin (Invitrogen). Functionality of the tet-repressor was controlled with a tetracycline-inducible GFP expression plasmid (pCDNA5/TO-GFP). In the absence of tetracycline (or doxycyclin) only a small number of cells express GFP. Addition of doxycyclin increases the number of GFP expressing cells about 10 fold (data not shown).

Where [5] appears, read: metformin 800 μM overnight, normal and insulin-resistant conditions.
Setting [6] is: without expression of isoform 2 of AS160.
The mark [7] stands for this setting: high glucose plus insulin conditions.
The mark [8] stands for this setting: high glucose plus insulin overnight (25 mM glucose+10 nM insulin).
[9] abbreviates: with doxycyclin-induced expression of isoform 2 of AS160.

Consider `N#CC(=C(/N)Sc1ccccc1N)/C(C#N)=C(\N)Sc1ccccc1N` [U0126, reference compound], for which the “effect on uptake of glucose” value in the test on L6-GLUT4myc cells [1] (U0126 10 μM, 20 μM, additional stimulation with 5 nM insulin, mainly in cells expressing isoform2 of AS160) is listed as “significantly improved uptake of glucose”.
As for `CN(C)C(=N)N=C(N)N` [metformin, dimethylbiguanide, reference compound], the “effect on activation of AS160” value in the test with AS160 (Thr 642) (setting [5]) is given as “no effect”. Further, in the test on AKT (Ser 473) [2] (setting [5]), the “effect on activation of AKT” value was “no effect”.
Regarding `NC(=O)c1ncn([C@@H]2O[C@H](CO)[C@@H](O)[C@H]2O)c1N` [AICAR, 5-Aminoimidazole-4-carboxaide 1-beta-D-ribofuranoside, reference compound], in the test on L6-GLUT4myc cells [1] (with vs without isoform 2 of AS160), the “effect of expression of isoform 2 of AS160 on stimulated glucose uptake” value is “no additional effect”. In addition, the “uptake of glucose (2-deoxyglucose), fold increase after stimulation” value (“uptake … fold increase after stimulation” for short) with L6-GLUT4myc cells [1] (setting [6]) is listed as 1.5 fold.
In the case of insulin, the “increased translocation of GLUT4 to the plasma membrane” value in the test on GLUT4 (100 nM insulin 20 minutes, doxycyclin-induced expression of AS160-like protein) is given as about 15%. For the same compound, the GLUT4 translocation entry in the test on GLUT4 (100 nM insulin alone (no AS160-like expression)) was “slightly induced”. In addition, the “phosphorylation of AKT (Ser 473)” value in the test on AKT (Ser 473) [3] (insulin 5 nM to 50 nM, 20 minutes) is given as “induced the phosphorylation of AKT (Ser 473)”. In the test with AS160 (Thr 642) (setting [7]), the “AS160 phosphorylation signal compared to untreated conditions (normal Glc)” value is given as 72%. For the same compound, the “AS160 (Thr 642) phosphorylation under insulin-resistant conditions” value in the test on AS160 (Thr 642) (setting [8]) is “dose-dependent manner”. Also, the “phosphorylation of full-length or isoform2 of AS160 (Thr 642)” value with AS160 (Thr 642) (normal conditions, doxycyclin-induced cells, insulin 20 minutes) was “dose-dependent manner”. In addition, the “AKT phosphorylation signal compared to untreated conditions (normal Glc)” value in the test on AKT (Ser 473) [2] (setting [7]) worked out at 72%. Besides, the “AKT (Ser 473) phosphorylation under insulin-resistant conditions” value with AKT (Ser 473) [2] (setting [8]) is recorded as “dose-dependent manner”. Also, in the test with AKT (Ser 473) [2] (normal conditions, insulin 20 minutes), the “AKT phosphorylation (Ser 473)” value was “dose-dependent manner”. In addition, the “localization of GLUT4-myc” value with GLUT4-myc is “induces the translocation of GLUT4-myc to the plasma membrane”. The “time at which the maximum of glucose uptake is observed” value in the test on L6-GLUT4myc cells [1] (50 nM insulin, time points 5, 15, 30 minutes) is at most 5 min. The “uptake … fold increase after stimulation” value in the test on L6-GLUT4myc cells [1] (setting [9]) is “up to 4 fold”.
Turning to `C[C@H]1c2cccc(O)c2C(O)=C2C(=O)[C@]3(O)C(O)=C(C(N)=O)C(=O)[C@@H](N(C)C)[C@@H]3[C@@H](O)[C@@H]21` [doxycyclin, reference compound], the “increase of the number of GFP expressing cells” value with L6-GLUT4myc cells [4] was “about 10 fold”. In addition, the “increase of glucose uptake induced by doxycyclin” value in the test with L6-GLUT4myc cells [1] (doxycyclin 48 hours, insulin 20 minutes, correlated with isoform2 of AS160 protein levels) is reported as “dose-dependent manner”.
Take insulin like growth factor-1 [IGF-1]: the “uptake … fold increase after stimulation” value with L6-GLUT4myc cells [1] (setting [9]) was “up to 5 fold”; in the test with L6-GLUT4myc cells [1] (setting [6]), 3 fold.
For the compound “1 L-6-hydroxymethyl-chiro-inositol 2-(R)-2-O-methyl-3-O-octadecylcarbonate [AKT inhibitor Calb., reference compound]”, the “effect on insulin-stimulated phosphorylation of AKT (Ser 473)” value in the test on AKT (Ser 473) [3] (pre-incubation 1 hour (wortmannin 200 nM, AKT inhibitor Calb. 50 μM), then insulin 10 nM 20 minutes) is on record as “no effect”.
